Measured values published in patent US20250120975A1, “INTEGRIN INHIBITORS FOR TREATMENT OF PRIMARY SCLEROSING CHOLANGITIS” (Pliant Therapeutics, Inc., priority 2023, published 2025).
Entries after “also recorded” stand apart in the source; their conditions may differ. Where two headings read alike, the source gives them in different places.

Legend:
[1] = test system: BALB/c.Mdr2−/− mouse model of biliary fibrosis; assay: Assessment of body and organ weights (liver, spleen) and colon length; type: in vivo; conditions: 6 weeks
From the text: The tissue source is BALBc.Mdr2-/−male mice that were 6 weeks old. The Mdr2(abcb4)−/− mouse model of sclerosing cholangitis has been previously described and is a model of spontaneously progressive hepatic fibrosis in mice with deletion of the biliary phospholipid flippase on fibrosis-susceptible background (Mdr2(abcb4)^−/−. BALB/c mouse). See N. Ikenaga, et al. (2015) Am J Pathol. 185 (2): 325-334, the entire contents of which are hereby incorporated by reference in their entirety.
(S)-4-((2-methoxyethyl)(4-(5,6,7,8-tetrahydro-1,8-naphthyridin-2-yl)butyl)amino)-2-(quinazolin-4-ylamino)butanoic acid (or PBS) was dosed once daily orally at 100 mg/kg, 300 mg/kg or 1000 mg/kg (see Table B-2) starting at 6 weeks after birth of the subject and continuing for 6 weeks. All animals were euthanized and necropsied at the end of week 12.
Body, liver and spleen weights and colon length were determined at necropsy. Liver and plasma were snap frozen/preserved in liquid nitrogen. Two pieces of liver were fixed in formalin for histological assessment.

αVβ1 integrin = αVβ1 integrin (Homo sapiens, UniProt P05556+P06756); assay: Inhibition of αVβ1 integrin (IC50); type: binding; conditions: read-out: 50% inhibitory concentration [IC50] αVβ1
[2] = test system: subjects with PSC and suspected liver fibrosis; assay: Phase 2a INTEGRIS-PSC: Enhanced Liver Fibrosis (ELF) score and components; type: in vivo, human
Method: The Enhanced Liver Fibrosis (ELF) score is a set of markers for extracellular matrix (ECM) activity. Three serum markers are measured, tissue inhibitor of metalloproteinases 1 (TIMP-1), amino-terminal propeptide of type III procollagen (PIIINP) and hyaluronic acid (HA). The measurements are combined in an algorithm to provide a score that correlates well with the degree of liver fibrosis (Sharma, C. et al., Journal of Gastroenterology and Hepatology, 36:1788-1802(2021), incorporated by reference herein in its entirety). A change in ELF score greater than or equal to 0.19 is indicative of clinical progression within two years (Muir A. J. et al., Hepatology, 2019 February; 69 (2): 684-698, incorporated by reference herein in its entirety). An ELF greater than or equal to 7.7 is considered moderate to severe fibrosis (Vesterhus M. et al., Hepatology, 2015 July; 62(1):188-97; incorporated by reference herein in its entirety).
In Parts 1 and 2, plasma, serum, and urine biomarker samples were obtained at predetermined times as indicated in the Schedule of Events (see Table B-4). In Part 3, plasma and serum biomarker samples were obtained at predetermined times as indicated in the Schedule of Events (see Table B-5 and Table B-6). These samples were used to measure specific proteins, nucleotides and/or metabolites that were elevated in subjects with fibrosis, and/or pharmacodynamic markers that could change with inhibition of integrins αVβ6 and αVβ1. The samples were also used to perform exploratory investigations using metabolomic or proteomic methods for use in future studies in subjects with fibrotic diseases.
Absolute and relative changes from Baseline in liver fibrosis biomarkers (including PRO-C3 and ELF) and in ALP are presented in numerical and graphical forms by treatment and dose utilizing data from the timepoints specified in the Schedule of Events. Changes from Baseline to Week 12(Parts 1 and 2) and Week 24 (Part 3) in magnetic resonance (MR)-based liver imaging are also evaluated, as well as changes in PROs.

[3] = test system: subjects with PSC and concomitant IBD; assay: Phase 2a INTEGRIS-PSC: IBD symptoms (partial Mayo Score); type: in vivo, human
From the text: Questionnaires to assess PROs will be administered at Baseline, Weeks 4 and 12(Parts 1, 2, and 3) and at Week 24 (Part 3 only), and will include the Chronic Liver Disease Questionnaire (CLDQ), the Itch Numeric Rating Scale (NRS), and the Partial Mayo Score (PMS), when available for use. See A. N. Naegeli, et al. (2015) International Journal of Dermatology 54 (6): 715-722 and Z. M. Younossi, et al. (1999) Gut 45:295-300, the entire contents of which are hereby incorporated by reference in their entirety.

[4] = test system: subjects with PSC and suspected liver fibrosis
[5] = 40 mg (n = 24), 12 weeks, Example B-3
[6] = 40 mg once daily, Week 12, n = 24
[7] = 80 mg (n = 20), 12 weeks, Example B-3
[8] = 80 mg once daily, Week 12, n = 20
[9] = 160 mg (n = 20), 12 weeks, Example B-3
[10] = 160 mg once daily, Week 12, n = 20
[11] = 320 mg once daily, Week 12, n = 27
[12] = 320 mg, Example B-5 24-week data (Table D-7), n = 27
[13] = 40, 80, 160, and 320 mg pooled, Week 12, n = 91
[14] = All (n = 64), 12 weeks, Example B-3

Sequence of αVβ1 integrin (P06756 31-1048): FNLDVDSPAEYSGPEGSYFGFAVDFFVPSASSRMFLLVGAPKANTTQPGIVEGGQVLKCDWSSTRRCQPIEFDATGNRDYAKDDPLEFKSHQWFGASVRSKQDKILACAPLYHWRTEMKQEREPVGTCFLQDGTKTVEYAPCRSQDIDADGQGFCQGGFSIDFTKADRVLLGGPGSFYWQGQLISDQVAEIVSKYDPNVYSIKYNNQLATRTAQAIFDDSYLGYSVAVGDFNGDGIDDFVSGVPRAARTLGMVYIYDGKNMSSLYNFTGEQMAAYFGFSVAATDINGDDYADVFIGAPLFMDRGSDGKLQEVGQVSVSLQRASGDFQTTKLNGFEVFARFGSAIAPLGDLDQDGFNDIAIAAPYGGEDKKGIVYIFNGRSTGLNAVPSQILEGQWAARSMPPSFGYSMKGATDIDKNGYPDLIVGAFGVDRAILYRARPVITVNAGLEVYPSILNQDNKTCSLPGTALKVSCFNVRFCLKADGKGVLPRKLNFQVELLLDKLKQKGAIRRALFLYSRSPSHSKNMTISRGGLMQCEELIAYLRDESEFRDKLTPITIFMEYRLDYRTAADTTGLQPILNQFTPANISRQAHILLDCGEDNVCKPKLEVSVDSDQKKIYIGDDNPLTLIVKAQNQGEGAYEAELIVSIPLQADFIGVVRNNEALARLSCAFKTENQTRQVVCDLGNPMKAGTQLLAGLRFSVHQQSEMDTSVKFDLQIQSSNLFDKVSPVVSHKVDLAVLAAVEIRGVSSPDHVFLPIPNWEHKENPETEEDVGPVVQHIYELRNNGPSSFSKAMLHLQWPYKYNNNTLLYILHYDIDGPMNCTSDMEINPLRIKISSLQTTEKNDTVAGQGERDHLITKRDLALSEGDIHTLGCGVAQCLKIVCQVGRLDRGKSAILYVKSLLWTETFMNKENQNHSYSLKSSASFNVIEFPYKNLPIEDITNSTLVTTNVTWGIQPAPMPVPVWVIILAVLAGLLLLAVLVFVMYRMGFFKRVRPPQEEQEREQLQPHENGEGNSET
Sequence of αVβ1 integrin (P05556 21-798): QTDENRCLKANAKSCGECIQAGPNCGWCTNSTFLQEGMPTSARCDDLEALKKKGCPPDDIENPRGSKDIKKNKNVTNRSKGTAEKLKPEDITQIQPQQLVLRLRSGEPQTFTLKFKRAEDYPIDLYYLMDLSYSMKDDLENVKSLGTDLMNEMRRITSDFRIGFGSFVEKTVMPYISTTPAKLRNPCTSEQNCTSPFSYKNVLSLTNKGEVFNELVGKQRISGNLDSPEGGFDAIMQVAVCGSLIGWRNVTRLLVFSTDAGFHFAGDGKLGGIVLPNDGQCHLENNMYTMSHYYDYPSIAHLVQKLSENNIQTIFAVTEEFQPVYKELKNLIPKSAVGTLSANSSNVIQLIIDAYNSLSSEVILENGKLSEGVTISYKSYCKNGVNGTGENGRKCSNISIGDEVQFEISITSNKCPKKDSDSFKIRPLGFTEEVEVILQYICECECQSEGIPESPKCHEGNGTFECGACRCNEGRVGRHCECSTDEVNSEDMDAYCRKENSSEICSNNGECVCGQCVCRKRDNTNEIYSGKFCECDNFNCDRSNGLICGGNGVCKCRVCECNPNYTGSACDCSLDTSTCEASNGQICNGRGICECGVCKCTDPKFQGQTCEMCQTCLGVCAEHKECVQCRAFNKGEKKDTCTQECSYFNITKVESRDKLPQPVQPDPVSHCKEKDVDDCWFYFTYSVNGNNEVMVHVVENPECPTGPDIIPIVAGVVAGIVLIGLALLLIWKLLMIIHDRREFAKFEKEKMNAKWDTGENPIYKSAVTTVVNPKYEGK

COCCN(CCCCc1ccc2c(n1)NCCC2)CC[C@H](Nc1ncnc2ccccc12)C(=O)O [Bexotegrast, (S)-4-((2-methoxyethyl)(4-(5,6,7,8-tetrahydro-1,8-naphthyridin-2-yl)butyl)amino)-2-(quinazolin-4-ylamino)butanoic acid]
liver weight relative to vehicle control ([1]; 1000 mg/kg/day): decreased | colon length ([1]; 100, 300, 1000 mg/kg): did not change | spleen weights ([1]; all doses (100, 300, 1000 mg/kg)): no changes | IC50 (αVβ1 integrin): 3.4 nM | ELF score components TIMP-1, HA, PIIINP vs placebo ([2]; 160 mg, Week 12, Example B-3): achieved statistical significance | ELF score, difference to placebo ([2]; 160 mg, Week 12, Example B-3): statistically significant difference | reduction of the mean change in ELF score relative to placebo ([2]; 160 mg, Week 12, Example B-3): 84% | ELF score relative to placebo ([2]; 320 mg, Week 12, Example B-4): reduction | ELF score, overall population ([2]; 320 mg, Week 12 to Week 24, Example B-5): no increase; also recorded: stable ELF score | ELF score, patients at high risk (baseline ELF >9.8) ([2]; 320 mg, Week 24, compared to an increase in the placebo group, Example B-5): reduction in ELF score | ELF score components (TIMP-1, PIIINP, HA) compared to placebo ([2]; 40, 80, 160, 320 mg, Week 12, Example B-4): generally reduced | ELF score relative to placebo ([2]; all doses (40, 80, 160 mg), Week 12, Example B-3): reduced | ELF scores relative to placebo ([2]; all doses (40, 80, 160, 320 mg), Week 12, Example B-4): reduced | IBD symptoms in patients with IBD ([3]; 40, 80, 160 mg, 12 weeks, Example B-3): no clinically-relevant changes | IBD symptoms as measured by partial Mayo Score ([3]; patients with concomitant IBD, Example B-4): no change | COVID-19 TEAE, % of Participants Reporting [4, 5]: (8.3) % | COVID-19 TEAE, n of Participants Reporting [4, 5]: 2 n | TEAE Leading to Death, n of Participants Reporting [4, 5]: 0 n | COVID-19 TEAE, % of Participants Reporting [4, 6]: (8.3) % | COVID-19 TEAE, n of Participants Reporting [4, 6]: 2 | TEAE Leading to Death, n of Participants Reporting [4, 6]: 0 | TEAE Leading to Withdrawal of bexotegrast, n of Participants Reporting ([4]; 40 mg once daily, Week 12, n = 24, COVID-19/dyspnoea/nasal congestion): 1 | TEAE leading to withdrawal: AE Preferred Term ([4]; 40 mg treatment group, Example B-3): COVID-19/ | COVID-19 TEAE, % of Participants Reporting [4, 7]: (5.0) % | COVID-19 TEAE, n of Participants Reporting [4, 7]: 1 n | TEAE Leading to Death, n of Participants Reporting [4, 7]: 0 n | COVID-19 TEAE, % of Participants Reporting [4, 8]: (5.0) % | COVID-19 TEAE, n of Participants Reporting [4, 8]: 1 | TEAE Leading to Death, n of Participants Reporting [4, 8]: 0 | COVID-19 TEAE, n of Participants Reporting [4, 9]: 0 n | TEAE Leading to Death, n of Participants Reporting [4, 9]: 0 n | COVID-19 TEAE, n of Participants Reporting [4, 10]: 0 | TEAE Leading to Death, n of Participants Reporting [4, 10]: 0 | COVID-19 TEAE, % of Participants Reporting [4, 11]: (14.8) % | COVID-19 TEAE, n of Participants Reporting [4, 11]: 4 | TEAE Leading to Death, n of Participants Reporting [4, 11]: 0 | TEAE Leading to Death, n of Participants Reporting After Week 12 ([4]; 320 mg, After Week 12 (Table D-4), n = 27): 0 | COVID-19 TEAE, % of Participants Reporting [4, 12]: 18.5% | COVID-19 TEAE, n of Participants Reporting [4, 12]: 5 | TEAE Leading to Death, n of Participants Reporting ([4]; 320 mg, after 24 weeks (Table D-3), n = 27): 0 | COVID-19 TEAE, % of Participants Reporting [4, 13]: (7.7) % | COVID-19 TEAE, n of Participants Reporting [4, 13]: 7 | TEAE Leading to Death, n of Participants Reporting [4, 13]: 0 | COVID-19 TEAE, % of Participants Reporting [4, 14]: (4.7) % | COVID-19 TEAE, n of Participants Reporting [4, 14]: 3 n | TEAE Leading to Death, n of Participants Reporting [4, 14]: 0 n | Cholangitis (TEAE), n of Participants Reporting ([4]; human, in vivo, 12 weeks): 2 n | Fatigue (TEAE), n of Participants Reporting ([4]; human, in vivo, 12 weeks): 9 n | Frequent bowel movements (TEAE), % of Participants Reporting ([4]; human, in vivo, 12 weeks): (4.7) % | Frequent bowel movements (TEAE), n of Participants Reporting ([4]; human, in vivo, 12 weeks): 3 n | Headache (TEAE), n of Participants Reporting ([4]; human, in vivo, 12 weeks): 6 n | Nausea (TEAE), n of Participants Reporting ([4]; human, in vivo, 12 weeks): 6 n | Pruritus (TEAE), n of Participants Reporting ([4]; human, in vivo, 12 weeks): 9 n | Serious TEAE Related to study drug, n of Participants Reporting ([4]; human, in vivo, 12 weeks): 0 n | Serious TEAE, % of Participants Reporting ([4]; human, in vivo, 12 weeks): (3.1) % | Serious TEAE, n of Participants Reporting ([4]; human, in vivo, 12 weeks): 2 n | TEAE Leading to Early Termination from Study, % of Participants Reporting ([4]; human, in vivo, 12 weeks): (1.6)^1% | TEAE Leading to Early Termination from Study, n of Participants Reporting ([4]; human, in vivo, 12 weeks): 1 n | TEAE Leading to Interruption of Study Drug, % of Participants Reporting ([4]; human, in vivo, 12 weeks): (1.6)^1% | TEAE Leading to Interruption of Study Drug, n of Participants Reporting ([4]; human, in vivo, 12 weeks): 1 n | TEAE Leading to Withdrawal of Study Drug, % of Participants Reporting ([4]; human, in vivo, 12 weeks): (4.7)^2, 3, 4% | TEAE Leading to Withdrawal of Study Drug, n of Participants Reporting ([4]; human, in vivo, 12 weeks): 3 n | TEAE Related to study drug, % of Participants Reporting ([4]; human, in vivo, 12 weeks): (17.2) % | TEAE Related to study drug, n of Participants Reporting ([4]; human, in vivo, 12 weeks): 11 n | TEAE of CTCAE Grade 3 or Higher Related to study drug, n of Participants Reporting ([4]; human, in vivo, 12 weeks): 0 n | TEAE of CTCAE Grade 3 or Higher, % of Participants Reporting ([4]; human, in vivo, 12 weeks): (6.3) % | TEAE of CTCAE Grade 3 or Higher, n of Participants Reporting ([4]; human, in vivo, 12 weeks): 4 n | TEAE, % of Participants Reporting ([4]; human, in vivo, 12 weeks): (64.1) % | TEAE, n of Participants Reporting ([4]; human, in vivo, 12 weeks): 41 n | AEs of pruritus and cholangitis relative to placebo ([4]; in vivo): occurred less frequently
